Ten compounds from ChEMBL document CHEMBL1201862, “PubChem BioAssay data set” (2004) can be followed below.

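Five compound concentrations were applied to cells in 96-well plates for 48 hours; endpoints were derived by simple linear interpolation of the resulting dose-response curve. GI50 = concentration required for 50% inhibition of growth.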 Activity calls are given as the source filed them. Cut-off read from the data, not from the text of the source: active = GI50 up to about 1.1 µM and inactive = higher. A value given as a limit tells only on which side of the number the result lay.

Among the test systems are A498; A549; COLO 205; DU-145; EKVX; HCT-116; HOP-62; HOP-92; HT-29; LOX IMVI; NCI-H226; NCI-H522; OVCAR-5; OVCAR-8; SF-539; SK-OV-3; SR; SW-620; U-251; UO-31.
What all share (experiment): growth of human tumour cells (NCI), 48 h

Consider `COc1ccc2c(c1)CCCc1c-2nc2ccccc2c1N`, for which the GI50 in the experiment with A498 is 8.24 µM (inactive); in the experiment on A549 it was 12.9 µM (inactive); with COLO 205, 1.69 µM (inactive); in the experiment with DU-145 it was 13.4 µM (inactive); in the experiment on EKVX, 6.28 µM (inactive); in the experiment with HCT-116 it was 5.81 µM (inactive). Moreover, the GI50 in the experiment with HOP-62 is 1.52 µM (inactive); in the experiment with HOP-92, 5.73 µM (inactive); in the experiment on HT-29, 3.3 µM (inactive); in the experiment on LOX IMVI, 8.57 µM (inactive); with NCI-H226 it was 13.8 µM (inactive); in the experiment with NCI-H522, 13.6 µM (inactive). Moreover, the GI50 is 10.2 µM (inactive) with OVCAR-5; 12.9 µM (inactive) in the experiment with OVCAR-8; 12.4 µM (inactive) in the experiment on SF-539; 10.4 µM (inactive) in the experiment on SK-OV-3; 2.57 µM (inactive) with SR; 10.7 µM (inactive) in the experiment on SW-620. Also, the GI50 was 12.7 µM (inactive) with U-251 and 5.35 µM (inactive) in the experiment on UO-31.

For `N=C(N)NS(=O)(=O)c1ccc(Nc2c3ccccc3nc3c(C(=O)NCCO)cccc23)cc1`, the GI50 with A498 was 0.13 µM (active); in the experiment with A549, 0.157 µM (active); in the experiment with COLO 205 it was 0.16 µM (active); in the experiment on DU-145, 0.214 µM (active); with EKVX, 0.248 µM (active); with HCT-116 it was 0.223 µM (active). Further, the GI50 with HOP-62 was 0.186 µM (active); in the experiment on HOP-92 it was 0.192 µM (active); in the experiment on HT-29, 0.16 µM (active); in the experiment on LOX IMVI, 0.143 µM (active); in the experiment on NCI-H226, 0.142 µM (active); with NCI-H522, 0.158 µM (active). The GI50 is 0.244 µM (active) with OVCAR-5; 0.185 µM (active) in the experiment with OVCAR-8; 0.193 µM (active) in the experiment on SF-539; 0.236 µM (active) in the experiment with SK-OV-3; 0.136 µM (active) in the experiment with SR; 0.188 µM (active) in the experiment on SW-620. The GI50 with U-251 is 0.184 µM (active); in the experiment with UO-31 it was 0.175 µM (active).

Turning to `CN(C)CCOc1ccc2[nH]c(C(=O)N3CC(CCl)c4c3cc(N)c3ccccc43)cc2c1` (stereo not given), the GI50 in the experiment with A498, in the experiment on A549, in the experiment with COLO 205, with DU-145, in the experiment on EKVX and with HCT-116 was < 0.01 µM (active) each time. The GI50 in the experiment on HOP-62, in the experiment with HOP-92, with HT-29, in the experiment with LOX IMVI, in the experiment on NCI-H226 and in the experiment on NCI-H522 was < 0.01 µM (active) each time. Besides, the GI50 with OVCAR-5, in the experiment on OVCAR-8, with SF-539, with SK-OV-3, in the experiment with SR and in the experiment with SW-620 was < 0.01 µM (active) throughout. Further, the GI50 with U-251 and in the experiment on UO-31 was < 0.01 µM (active) each time.

As for `O=C(NCCNCCCNC(=O)c1cc(-c2ccccc2)nc2ccccc12)c1cccc(OCc2ccccc2)c1OCc1ccccc1`, the GI50 in the experiment with A498 was 1.6 µM (inactive); in the experiment with A549 it was 1.74 µM (inactive); in the experiment with COLO 205, 1.69 µM (inactive); in the experiment on DU-145 it was 1.81 µM (inactive); in the experiment with EKVX, 1.69 µM (inactive); in the experiment with HCT-116 it was 1.71 µM (inactive). Also, the GI50 in the experiment on HOP-62 was 1.65 µM (inactive); in the experiment with HOP-92, 1.53 µM (inactive); in the experiment with HT-29, 1.63 µM (inactive); in the experiment on LOX IMVI, 1.57 µM (inactive); in the experiment with NCI-H226 it was 1.69 µM (inactive); with NCI-H522, 1.73 µM (inactive). Besides, the GI50 in the experiment with OVCAR-5 was 1.91 µM (inactive); in the experiment with OVCAR-8, 1.71 µM (inactive); in the experiment with SF-539 it was 1.77 µM (inactive); in the experiment with SK-OV-3, 1.71 µM (inactive); with SR, 0.889 µM (active); in the experiment on SW-620, 1.77 µM (inactive). The GI50 with U-251 is 1.94 µM (inactive); in the experiment on UO-31, 1.66 µM (inactive).

Consider `CCOP(=O)(CCCC(O)CNc1nc(N)nc(Cl)c1/N=N/c1ccc(Cl)cc1)OCC` (stereo not given), for which the GI50 is 6.7 µM (inactive) with A498; 10.6 µM (inactive) with A549; 6.64 µM (inactive) in the experiment with COLO 205; 6.14 µM (inactive) in the experiment with DU-145; 3.63 µM (inactive) in the experiment with EKVX; 8.28 µM (inactive) with HCT-116. Also, the GI50 in the experiment on HOP-62 was 9.89 µM (inactive); in the experiment on HOP-92, 5.6 µM (inactive); in the experiment on HT-29, 9.73 µM (inactive); in the experiment on LOX IMVI, 3.75 µM (inactive); in the experiment with NCI-H226, 7.05 µM (inactive); with NCI-H522, 5.69 µM (inactive). Besides, the GI50 in the experiment on OVCAR-5 was 10.9 µM (inactive); in the experiment on OVCAR-8 it was 8.47 µM (inactive); in the experiment with SF-539, 9.25 µM (inactive); in the experiment on SK-OV-3, 3.19 µM (inactive); in the experiment with SR, 2.64 µM (inactive); in the experiment on SW-620, 12.3 µM (inactive). Also, the GI50 with U-251 was 8.57 µM (inactive); in the experiment on UO-31 it was 3.56 µM (inactive).

For `Cc1cc(-n2c(/C=C/c3ccc(Cl)cc3)nc3cc(Cl)ccc3c2=O)on1`, the GI50 in the experiment with A498 is 2.31 µM (inactive); in the experiment with A549, 14.1 µM (inactive); in the experiment on COLO 205, 18.9 µM (inactive); in the experiment with DU-145 it was > 50 µM (inactive); in the experiment with EKVX, 22.4 µM (inactive); in the experiment on HCT-116, 6.1 µM (inactive). In addition, the GI50 in the experiment with HOP-62 was 7.62 µM (inactive); in the experiment with HOP-92, 16 µM (inactive); with HT-29, > 50 µM (inactive); in the experiment on LOX IMVI it was 15.1 µM (inactive); in the experiment with NCI-H226 it was 12.4 µM (inactive); with NCI-H522 it was 23.2 µM (inactive). The GI50 in the experiment with OVCAR-5 was > 50 µM (inactive); in the experiment on OVCAR-8, 10.6 µM (inactive); with SF-539, 25.6 µM (inactive); in the experiment on SK-OV-3, 14.9 µM (inactive); with SR it was 0.005 µM (active); in the experiment with SW-620, 48 µM (inactive). For the same compound, the GI50 in the experiment on U-251 is 6.4 µM (inactive); in the experiment with UO-31, 3.61 µM (inactive).

Regarding `O=C(Cc1csc2[n+]1C(=O)/C(=C/c1ccc(Cl)cc1)S2)Nc1ccccc1`, the GI50 is 15.7 µM (inactive) with A498; 24.1 µM (inactive) in the experiment with A549; 14.9 µM (inactive) in the experiment with COLO 205; 31.4 µM (inactive) with DU-145; 16.3 µM (inactive) in the experiment with EKVX; 16.8 µM (inactive) in the experiment with HCT-116. For the same compound, the GI50 in the experiment on HOP-62 is 2.01 µM (inactive); with HOP-92 it was 26.6 µM (inactive); in the experiment with HT-29, 24.2 µM (inactive); in the experiment with LOX IMVI, 16.2 µM (inactive); in the experiment with NCI-H226, 15.6 µM (inactive); in the experiment on NCI-H522, 15.3 µM (inactive). Moreover, the GI50 is 22.5 µM (inactive) in the experiment with OVCAR-5; 40.7 µM (inactive) in the experiment with OVCAR-8; 27.8 µM (inactive) with SF-539; 19.4 µM (inactive) with SK-OV-3; 24.3 µM (inactive) in the experiment with SR; 26.4 µM (inactive) in the experiment on SW-620. Moreover, the GI50 was 16.2 µM (inactive) in the experiment on U-251 and 21.9 µM (inactive) with UO-31.

Turning to `O=C(O)C1C(Br)(c2ccccc2)C1(Br)c1ccccc1` (stereo not given), the GI50 in the experiment with A498 is 25.5 µM (inactive); in the experiment with A549, 39 µM (inactive); in the experiment on COLO 205, 13.4 µM (inactive); in the experiment on DU-145, > 100 µM (inactive); in the experiment on EKVX, 86.7 µM (inactive); in the experiment with HCT-116, 39.7 µM (inactive). For the same compound, the GI50 in the experiment on HOP-62 is 37 µM (inactive); in the experiment with HOP-92, 42.7 µM (inactive); with HT-29, 20.7 µM (inactive); with LOX IMVI it was 22.2 µM (inactive); in the experiment on NCI-H226 it was 27.2 µM (inactive); with NCI-H522 it was 17.6 µM (inactive). For the same compound, the GI50 was 58.9 µM (inactive) in the experiment with OVCAR-5; 23 µM (inactive) in the experiment with OVCAR-8; 52.7 µM (inactive) in the experiment on SF-539; 27.5 µM (inactive) in the experiment with SK-OV-3; 2.88 µM (inactive) in the experiment with SR; 31.4 µM (inactive) in the experiment with SW-620. Besides, the GI50 with U-251 is 27.6 µM (inactive); in the experiment with UO-31, 16.2 µM (inactive).

With `CCCCCCC/C=C1\CCC(CN(C)C)C1=O` (stereo not given), the GI50 in the experiment with A498 is 19.9 µM (inactive); with A549 it was 22.6 µM (inactive); with COLO 205, 10.2 µM (inactive); in the experiment on DU-145, 14.7 µM (inactive); in the experiment with EKVX it was 15.5 µM (inactive); with HCT-116 it was 7.23 µM (inactive). Also, the GI50 is 17.6 µM (inactive) in the experiment with HOP-62; 17.3 µM (inactive) in the experiment with HOP-92; 14.6 µM (inactive) in the experiment with HT-29; 6.85 µM (inactive) in the experiment with LOX IMVI; 22.4 µM (inactive) in the experiment on NCI-H226; 5.48 µM (inactive) in the experiment on NCI-H522. Moreover, the GI50 is 19.8 µM (inactive) with OVCAR-5; 9.77 µM (inactive) in the experiment with OVCAR-8; 16.6 µM (inactive) with SF-539; 23.7 µM (inactive) with SK-OV-3; 3.47 µM (inactive) in the experiment on SR; 6.19 µM (inactive) with SW-620. The figures for the GI50 with U-251 and in the experiment with UO-31 were 17.5 µM (inactive) and 15.6 µM (inactive), respectively.

Consider `CN(C)c1nc2sc3c(c2c(=O)o1)CCCC3`, for which the GI50 was 16 µM (inactive) in the experiment with A498; 29.2 µM (inactive) in the experiment with A549; 23.6 µM (inactive) in the experiment with COLO 205; 27.8 µM (inactive) in the experiment on DU-145; 25.5 µM (inactive) with EKVX; 44.9 µM (inactive) with HCT-116. For the same compound, the GI50 in the experiment on HOP-62 is 25.6 µM (inactive); in the experiment with HOP-92 it was 36.9 µM (inactive); in the experiment on HT-29 it was 21 µM (inactive); in the experiment with LOX IMVI it was 52 µM (inactive); in the experiment with NCI-H226 it was 15.3 µM (inactive); in the experiment on NCI-H522, 25.4 µM (inactive). Moreover, the GI50 in the experiment on OVCAR-5 is 60.1 µM (inactive); in the experiment on OVCAR-8, 31.8 µM (inactive); with SF-539, 43.3 µM (inactive); in the experiment with SK-OV-3, 31.6 µM (inactive); in the experiment on SR, 65.2 µM (inactive); in the experiment with SW-620, 54.8 µM (inactive). The values for the GI50 with U-251 and with UO-31 were 32.7 µM (inactive) and 7.46 µM (inactive), respectively.
